Like-named read-outs stand apart in the source and are kept apart here.
Assay: Single oral dose human plasma pharmacokinetics of D, DA and DOH after Cogni.Q
Format: in vivo
Settings: human, plasma
From the text: Ten healthy male and 10 female subjects were recruited by public announcement in Amarillo, TX, from January 2013 to April 2013 (see Fig. 1 CONSORT diagram). The sample size for each gender was chosen without power calculation due to the lack of prior knowledge of PK parameter variance in humans. After receiving informed consent verbally and in writing, the health status of each candidate was confirmed by health questionnaire, plasma biochemistry (hepatic and renal functions), complete blood cell count (CBC), and a physical examination by a participating academic physician. Subjects with diabetes, or pregnant, perinatal and breastfeeding women were excluded. For the 48 hours preceding study visit until the final blood draw, all subjects were instructed to avoid taking any prescription or nonprescription drugs, vitamins, and herbal/dietary supplements. Each subject was compensated for participating in the study per TTUHSC IRB approved rate.
Eligible subjects arrived at our clinical facility at 0700 (7:00 am) on the test day after a fast beginning at 2200 (10:00 pm) the previous night. After a brief review of vital signs, the nurse placed an intravenous (IV) line with saline drip in one arm of each subject. A baseline pre-dose (hour 0) blood sample was drawn through the IV line; after that subjects swallowed four Cogni.Q vegicaps with 240 mL of water at hour 0 under direct supervision. Subjects stayed at the clinical facility in their room for the next 12 hours, returning at 24 and 48 hours. Blood was drawn at baseline (hour 0) and at 0.5, 1, 2, 3, 4, 6, 8, 12, 24 and 48 hours after dosing into Vacutainer Blood Collection Tube (Becton-Dickinson, Franklin Lakes, NJ. Product Number: 367874, Sodium heparin was used as anti-coagulant). Water was allowed as desired except for within the first hour after Cogni.Q consumption. All subjects received standardized meals at post-dose hours 4.5 and 9.5 but no food was allowed for at least the first 4 hours post-dose.
Plasma was prepared by centrifuging the heparinized blood at 1000 g for 15 minutes at room temperature. Urine samples (40mL) were collected within time spans of 0–4, 4–8, 8–12 and 12–24 hours (total volume of urine was recorded). All plasma and urine samples were put on dry ice immediately and then stored at -80°C freezer until analysis.
Plasma samples were extracted with a validated solid supported liquid extraction (SLE) method facilitated with a positive pressure manifold (Biotage, Charlotte, NC). Briefly, 100 μL of plasma sample was spiked with 5 μL of 10 ng/μL prednisolone (IS), diluted with 200 μL of LC-MS grade water, mixed and loaded onto ISOLUTE SLE+ 400 μL Array Well cartridges (Biotage, Charlotte, NC). A pulse of minimum positive pressure was applied to facilitate the samples absorption into the cartridges. After the samples were allowed to absorb for 5 min, the compounds were eluted with 2×500 μL tert-butyl methyl ether. The eluent was dried in a Speedvac and the resulting residue was reconstituted in 50 μL of methanol for UHPLC-MS/MS analysis.
Eight-point calibration curves were constructed for D, DA and DOH, at concentrations of 0.1, 0.5, 1, 5, 10, 20, 50 and 100 μg/L for D and DA, and at concentrations of 1, 5, 10, 50, 100, 200, 500 and 1000 μg/L for DOH, respectively. The linear range was 0.1–100 μg/L (0.3–300 nmol/L), 0.1–100 μg/L (0.3–300 nmol/L) and 1–1000 μg/L (4–4000 nmol/L) for D, DA and DOH, respectively. The inter- and intra-assay CV were lower than 6.5% and the accuracy was between 90–105%. Calibration curve was run for each batch of samples analyzed. The mean calibration curve correlation coefficient (r) for D, DA and DOH was 0.999, 0.999 and 0.998, respectively (data from 7–10 calibration curves). In addition, 70% of the plasma samples were extracted and analyzed twice, the data from two replicate analyses were nearly identical and combined for final data analyses and presentation. […]

CC1(C)Oc2cc3oc(=O)ccc3cc2C[C@@H]1O [DOH, decursinol]
half-life (oral, 4 Cogni.Q vegicaps, subject S9 (158 lb), read-out: Terminal t1/2, h (converted)): 7.7 h
Tmax (oral, 4 Cogni.Q vegicaps, subject S9 (158 lb), read-out: Tmax): 3 h
AUC(0-t) (oral, 4 Cogni.Q vegicaps, subject S10 (185 lb), read-out: AUC0-48h): 17400 nmol·h/L
Cmax (oral, 4 Cogni.Q vegicaps, subject S10 (185 lb), read-out: Cmax): 1610 nM
half-life (oral, 4 Cogni.Q vegicaps, subject S10 (185 lb), read-out: Terminal t1/2, h (converted)): 8.8 h
Tmax (oral, 4 Cogni.Q vegicaps, subject S10 (185 lb), read-out: Tmax): 2 h
AUC(0-t) (oral, 4 Cogni.Q vegicaps, subject S11 (178 lb), read-out: AUC0-48h): 37300 nmol·h/L
Cmax (oral, 4 Cogni.Q vegicaps, subject S11 (178 lb), read-out: Cmax): 3420 nM
half-life (oral, 4 Cogni.Q vegicaps, subject S11 (178 lb), read-out: Terminal t1/2, h (converted)): 5 h
Tmax (oral, 4 Cogni.Q vegicaps, subject S11 (178 lb), read-out: Tmax): 2 h
AUC(0-t) (oral, 4 Cogni.Q vegicaps, subject S12 (169 lb), read-out: AUC0-48h): 29100 nmol·h/L
Cmax (oral, 4 Cogni.Q vegicaps, subject S12 (169 lb), read-out: Cmax): 2590 nM
half-life (oral, 4 Cogni.Q vegicaps, subject S12 (169 lb), read-out: Terminal t1/2, h (converted)): 7.9 h
Tmax (oral, 4 Cogni.Q vegicaps, subject S12 (169 lb), read-out: Tmax): 4 h
AUC(0-t) (oral, 4 Cogni.Q vegicaps, subject S13 (192 lb), read-out: AUC0-48h): 26100 nmol·h/L
Cmax (oral, 4 Cogni.Q vegicaps, subject S13 (192 lb), read-out: Cmax): 2420 nM
half-life (oral, 4 Cogni.Q vegicaps, subject S13 (192 lb), read-out: Terminal t1/2, h (converted)): 6 h
Tmax (oral, 4 Cogni.Q vegicaps, subject S13 (192 lb), read-out: Tmax): 2 h
AUC(0-t) (oral, 4 Cogni.Q vegicaps, subject S14 (200 lb), read-out: AUC0-48h): 25700 nmol·h/L
Cmax (oral, 4 Cogni.Q vegicaps, subject S14 (200 lb), read-out: Cmax): 3340 nM
half-life (oral, 4 Cogni.Q vegicaps, subject S14 (200 lb), read-out: Terminal t1/2, h (converted)): 5.3 h
Tmax (oral, 4 Cogni.Q vegicaps, subject S14 (200 lb), read-out: Tmax): 2 h
AUC(0-t) (oral, 4 Cogni.Q vegicaps, subject S15 (177 lb), read-out: AUC0-48h): 26100 nmol·h/L
Cmax (oral, 4 Cogni.Q vegicaps, subject S15 (177 lb), read-out: Cmax): 4020 nM
half-life (oral, 4 Cogni.Q vegicaps, subject S15 (177 lb), read-out: Terminal t1/2, h (converted)): 4.5 h
Tmax (oral, 4 Cogni.Q vegicaps, subject S15 (177 lb), read-out: Tmax): 1 h
Tmax (oral, 4 Cogni.Q vegicaps, subject S16 (175 lb), read-out: Tmax): 2 h
AUC(0-t) (oral, 4 Cogni.Q vegicaps, subject S17 (147 lb), read-out: AUC0-48h): 46700 nmol·h/L
Cmax (oral, 4 Cogni.Q vegicaps, subject S17 (147 lb), read-out: Cmax): 3740 nM
half-life (oral, 4 Cogni.Q vegicaps, subject S17 (147 lb), read-out: Terminal t1/2, h (converted)): 10.2 h
Tmax (oral, 4 Cogni.Q vegicaps, subject S17 (147 lb), read-out: Tmax): 2 h
half-life (oral, 4 Cogni.Q vegicaps, subject S18 (180 lb), outlier, excluded from means, read-out: Terminal t1/2, h (converted)): 16 h
AUC(0-t) (oral, 4 Cogni.Q vegicaps, subject S18 (180 lb), read-out: AUC0-48h): 16500 nmol·h/L
Cmax (oral, 4 Cogni.Q vegicaps, subject S18 (180 lb), read-out: Cmax): 1160 nM
Tmax (oral, 4 Cogni.Q vegicaps, subject S18 (180 lb), read-out: Tmax): 3 h
AUC(0-t) (oral, 4 Cogni.Q vegicaps, subject S19 (130 lb), read-out: AUC0-48h): 21400 nmol·h/L
Cmax (oral, 4 Cogni.Q vegicaps, subject S19 (130 lb), read-out: Cmax): 2270 nM
half-life (oral, 4 Cogni.Q vegicaps, subject S19 (130 lb), read-out: Terminal t1/2, h (converted)): 6.6 h
Tmax (oral, 4 Cogni.Q vegicaps, subject S19 (130 lb), read-out: Tmax): 6 h
half-life (oral, subject S16 (175 lb), outlier, excluded from means, read-out: Terminal t1/2, h (converted)): 15 h
AUC(0-t) (oral, subject S16 (175 lb), read-out: AUC0-48h): 16300 nmol·h/L
Cmax (oral, subject S16 (175 lb), read-out: Cmax): 1800 nM
AUC(0-t) (oral, subject S20 (200 lb), read-out: AUC0-48h): 17900 nmol·h/L
Cmax (oral, subject S20 (200 lb), read-out: Cmax): 1330 nM
half-life (oral, subject S20 (200 lb), read-out: Terminal t1/2, h (converted)): 9.6 h
Tmax (oral, subject S20 (200 lb), read-out: Tmax): 2 h
AUC(0-t) (male, oral, 4 Cogni.Q vegicaps, Men n=10 (S1 Table), read-out: AUC0-48h, Mean): 22500 nmol·h/L
Cmax (male, oral, 4 Cogni.Q vegicaps, Men n=10 (S1 Table), read-out: Cmax, nM, Mean): 2350 nM
Tmax (male, oral, 4 Cogni.Q vegicaps, Men n=10 (S1 Table), read-out: Tmax, h, Mean): 2.4 h
half-life (male, oral, Men, outliers excluded (S1 Table), read-out: Terminal t1/2, h, Mean (converted)): 6.6 h
AUC(0-t) (male, po, Men N = 10, single oral dose Cogni.Q, read-out: AUC0–48h, h.nmol/L Mean (SD)): 22500 nmol·h/L
Cmax (male, po, Men N = 10, single oral dose Cogni.Q, read-out: Cmax, nmol/L, Mean (SD)): 2350 nM
Tmax (male, po, Men N = 10, single oral dose Cogni.Q, read-out: Tmax, h, Mean (SD)): 2.4 h
half-life (male, po, Men, outlier subjects excluded, single oral dose Cogni.Q, read-out: T1/2, h, terminal Mean (SD) (converted)): 6.6 h

Source: publication PMC4335020, “Single Oral Dose Pharmacokinetics of Decursin and Decursinol Angelate in Healthy Adult Men and Women” (PLoS ONE, 2015)
